Data as given in ChEMBL document CHEMBL4689842, “EUbOPEN Chemogenomics Library wave 1” (2021).

Test system: HEK-293T
Assay: Incucyte cell viability with HEK293T; note: filed as whole numbers so only -1 and 0 and 1 occur
Type: toxicity, cell-based
Settings: human, 10 µM, compound concentration 10 uM
[1] = 0 h, replicate number 2, timepoint 0 hours
[2] = 6 h, replicate number 1, timepoint 6 hours
[3] = 12 h, replicate number 1, timepoint 12 hours
[4] = 18 h, replicate number 1, timepoint 18 hours
[5] = 24 h, replicate number 1, timepoint 24 hours
[6] = 0 h, replicate number 1, timepoint 0 hours
[7] = 6 h, replicate number 2, timepoint 6 hours
[8] = 24 h, replicate number 2, timepoint 24 hours
[9] = 12 h, replicate number 2, timepoint 12 hours
[10] = 18 h, replicate number 2, timepoint 18 hours

Row | Compound | Growth Rate [1] | Growth Rate [2] | Growth Rate [3] | Growth Rate [4] | Growth Rate [5] | Growth Rate [6] | Growth Rate [7] | Growth Rate [8] | Growth Rate [9] | Growth Rate [10]
1 | S=C(NCCCc1c[nH]cn1)NCCCN(Cc1ccc(Cl)c(Cl)c1)c1ccc(Br)cn1 | 0 | 0 | 0 | 0 | 0 |  |  |  |  | 
2 | Cc1cc(C)c(S(=O)(=O)N(Cc2ccc(-c3cccc(S(C)(=O)=O)c3)cc2)Cc2ccc(C(F)(F)F)o2)c(C)c1 |  | 0 | 0 | 0 | 0 | 0 | 1 |  |  | 
3 | CCc1cccc(CC)c1NC(=O)c1nn(C)c2c1CCc1cnc(Nc3ccc(C(=O)NC4CCN(C)CC4)cc3OC(F)(F)F)nc1-2 |  | 0 | 0 | 0 | 0 |  |  |  |  | 
4 | Cl.Oc1ccc2c3c1O[C@H]1c4[nH]c5c(c4C[C@@]4(O)[C@@H](C2)N(CC2CC2)CC[C@]314)C[C@@]1(O)[C@H]2Cc3ccc(O)c4c3[C@@]1(CCN2CC1CC1)[C@H]5O4 |  | 1 | 1 | 1 | 1 | 0 |  | 0 |  | 
5 | O=C(Nc1cccnn1)N1CCC(=Cc2cccc(Oc3ccc(C(F)(F)F)cn3)c2)CC1 | 1 | 0 | 0 | 0 | 0 |  |  |  |  | 
6 | COc1cc(N2CCN(C)CC2)ccc1Nc1ncc2c(n1)N(C)c1ccccc1C(=O)N2C |  |  |  | 1 | 0 | 1 | 1 |  | 0 | 0
7 | CCNc1cc(N[C@H]2CC[C@H](O)CC2)nc(Nc2ccc3c(ccn3Cc3ccccc3)c2)n1 |  | 0 | 0 | 0 | 0 |  |  |  |  | 
8 | CCOc1cc(C(=O)N2CCC(N3CCN(C)CC3)CC2)ccc1Nc1ncc2c(n1)N(C1CCCC1)c1ccccc1C(=O)N2C | 0 | 0 | 0 | 0 | 0 |  |  |  |  | 
9 | O=C1N/C(=N/c2ccccc2F)S/C1=C\c1ccc(C(=O)O)cc1 |  |  | 1 |  | 1 |  |  |  |  | 
10 | CN([C@@H](Cc1ccc(OS(=O)(=O)c2cccc3cnccc23)cc1)C(=O)N1CCN(c2ccccc2)CC1)S(=O)(=O)c1cccc2cnccc12 | 1 | 0 | 0 | 0 | 0 |  |  |  |  | 
11 | O=C(Nc1ccc(Cl)cc1)Nc1cccc(-c2cccc(N3CCCC3)n2)c1 | 0 | 0 | 0 | 0 | 0 | 1 |  |  |  | 
12 | CCn1c(=O)c(-c2ccc(-c3cncs3)cc2Cl)cc2cnc(Nc3ccc(N4CCN(C)CC4)cc3)nc21 |  | 0 |  |  | 1 | 0 |  | 0 | 0 | 1
13 | Cc1ccc(C(=O)Nc2cccc(C(F)(F)F)c2)cc1Nc1nc(-c2cccnc2)nc2c1cnn2C |  | 0 | 0 | 0 | 0 | 0 |  |  |  | 
14 | CCCS(=O)(=O)c1nc(NC2CC2)cc(-c2ccc3c(ccn3C3CC(C)(C)NC(C)(C)C3)c2)n1 | 0 | 0 | 0 | 0 | 0 |  |  |  |  | 
15 | COC(=N)c1nc2ccc3ncnc(Nc4ccc(OC)cc4F)c3c2s1 | 1 | 0 | 0 | 0 | 0 | 0 |  |  |  | 
16 | CNC(=O)c1ccc(Nc2nc(OC3CCCC3)c3c(-c4ccc5nc(C)oc5c4)c[nH]c3n2)c(OC)c1 | 1 | 0 | 0 | 0 | 0 |  |  |  |  | 
17 | CCN1CCN(Cc2ccc(Nc3ncc(F)c(-c4cc(F)c5nc(C)n(C(C)C)c5c4)n3)nc2)CC1.CS(=O)(=O)O |  | 0 | 0 | 0 | 0 | 0 |  |  |  | 
18 | O=C(Nc1ccc(-c2ccnc(Nc3ccc(N4CCOCC4)cc3)n2)cc1)[C@@H]1CCCN1 |  | 0 | 0 | 0 | 0 | 1 |  |  |  | 

Row | Compound | Growth Rate [1] | Growth Rate [2] | Growth Rate [3] | Growth Rate [4] | Growth Rate [5] | Growth Rate [6] | Growth Rate [7] | Growth Rate [8] | Growth Rate [9] | Growth Rate [10]
19 | CCN(CC)S(=O)(=O)Nc1cccc(-c2ccc3c(NC(=O)C4CC4)n[nH]c3c2)c1 |  | 0 | 0 | 0 | 0 | 0 |  |  |  | 
20 | CCc1cccc(CC)c1NC(=O)c1nn(C)c2c1CCc1cnc(Nc3ccc(N4CCN(C)CC4)cc3OC)nc1-2 | 0 | 0 | 0 | 0 | 0 |  |  |  |  | 
21 | Cl.O=c1c2cccn2c2ccccc2n1CCCN1CCC(c2ccc(Cl)cc2)CC1 |  | 0 | 0 | 0 | 0 | 0 |  |  |  | 
22 | CNc1cc(Oc2cc(C(=O)Nc3cc(N4CCN(C)CC4)cc(C(F)(F)F)c3)ccc2C)ncn1 |  | 0 | 0 | 0 | 0 |  |  |  |  | 
23 | Cl.O=C(c1ccc(Nc2nccc(-c3cc4ccccc4s3)n2)cc1)N1CCC(N2CCCC2)CC1 |  | 0 | 0 | 0 | 0 |  |  |  |  | 
24 | COc1ccc(S(=O)(=O)N(CCO)c2ccccc2CN(C)C/C=C/c2ccc(Cl)cc2)cc1.O=P(O)(O)O |  | 0 | 0 | 0 | 0 |  |  |  |  | 
25 | Cc1ccc2nc(NCCN)c3ncc(C)n3c2c1.O=C(O)C(F)(F)F.O=C(O)C(F)(F)F | 1 | 0 | 0 | 0 | 0 | 0 |  |  |  | 
26 | NC(=O)c1cccc(-c2cc(Nc3ccc(OC(F)(F)F)cc3)ncn2)c1 |  | 0 | 0 | 0 | 0 | 0 |  |  |  | 
27 | CN1C2CCC1CC(OC(c1ccc(F)cc1)c1ccc(F)cc1)C2.Cl (stereo not drawn) | 1 | 0 | 0 | 0 | 0 |  |  |  |  | 
28 | CCOC(=O)c1c(C)[nH]c2ccc3c(c12)CN1CCc2cc(OC)ccc2C1O3 (stereo not drawn) | 0 | 0 | 0 | 0 | 0 |  |  |  |  | 
29 | C=CCn1c(=O)c2cnc(Nc3ccc(N4CCN(C)CC4)cc3)nc2n1-c1cccc(C(C)(C)O)n1 [ADAVOSERTIB] |  | 0 | 0 | 0 | 0 |  |  |  |  | 
30 | COc1cc(N2CCC(N3CCN(C)CC3)CC2)ccc1Nc1ncnc(Nc2ccccc2S(=O)(=O)C(C)C)n1 [ASP-3026] |  | 0 | 0 | 0 | 0 |  |  |  |  | 
31 | O=C(Nc1ccc(-n2nc(-c3cccnc3)cc2C(F)(F)F)cn1)c1ccc(-c2ccccc2)c(F)c1 [BI 2049] |  | 0 | 0 | 0 | 0 | 1 |  |  |  | 
32 | COCC(=O)NC/C=C/c1ccc2ncnc(Nc3ccc(Oc4ccc(C)nc4)c(C)c3)c2c1 [CP-724714] |  | 0 | 0 | 0 | 0 |  |  |  |  | 
33 | COc1cc2ncnc(Nc3ccc(F)c(Cl)c3)c2cc1NC(=O)/C=C/CN1CCCCC1 [DACOMITINIB ANHYDROUS] |  | 0 | 0 | 0 | 0 |  |  |  |  | 
34 | C=C1/C(=C\C=C2/CCC[C@]3(C)[C@@H]([C@H](C)/C=C/[C@H](C)C(C)C)CC[C@@H]23)C[C@@H](O)C[C@@H]1O [DOXERCALCIFEROL] |  | 0 | 0 | 0 | 0 | 0 |  |  |  | 
35 | CCCn1c(=O)c2[nH]c(-c3cnn(Cc4cccc(C(F)(F)F)c4)c3)nc2n(CC)c1=O [GS 6201] | 0 | 0 | 0 | 0 | 0 | 1 | 1 |  | 1 | 
36 | CCn1cc(-c2ccnc3[nH]c(-c4cccc(CN(C)C)c4)cc23)c(-c2ccc(NC(=O)N(C)C)cc2)n1 [GSK-1070916] | 1 | 0 | 0 | 0 | 0 |  |  |  |  | 
